Source: patent US20220401468A1 (priority 2021, published 2022)

Experiments:
SARS-CoV-2 spike protein = SARS-CoV-2 spike protein (Severe acute respiratory syndrome coronavirus 2, UniProt P0DTC2); settings: cited from earlier work
[1] = system: SARS-CoV-2 (USA-WA1/2020); assay type: cell-based; settings: Vero-E6 cells, 400 PFU/well, viral titer from plaque assay at 24 h post-infection
[2] = human, in vivo; cited from earlier work

Heparin sodium salt
binding affinity (SARS-CoV-2 spike protein): high-picomolar affinity | IC50, SARS-CoV-2 infection [1]: 0.05 µg/mL | probability of survival [2]: increased the probability of survival | risk of significant bleeding [2]: 10-15%

low-molecular-weight heparin
serum IL-6 levels [2]: lower serum IL-6 levels
